The values below come from patent US9427425B2, “Extracts, fractions and compositions comprising acetogenins and their applications” (LAILA NUTRACEUTICALS, priority 2009, dated 2016).

In test [1] the test system is TNFα. Nature of the test: Inhibition of LPS induced TNFα in THP-1 human monocytes (EIA). The class given is cell-based. On the procedure: Inhibition of Tumor necrosis factor-α (TNF-α) in vitro by extracts, fractions and compounds of Annona squamosa: The anti-inflammatory activities of extracts, fractions and compounds of Annona squamosa were assessed in a cell based in vitro assay. Briefly, THP-1 human monocytes cells were washed and re-suspended in phenol red free Dulbecco's Modified Eagle's Medium (DMEM) supplemented with 1% fetal Bovine serum (FBS). Equal number of cells was added to each well of a 96-well TC plate and the cells were pretreated for 2 h with various concentrations (ranging from 0.1 to 200 ng/mL; solutions prepared in culture medium from a stock solution containing 50 mg/l mL DMSO of each test compound) of extracts, fractions and compounds of Annona squamosa. The inflammatory response was induced by 100 ng/mL of LPS for 4 h at 37° C. in presence of 5% CO2. The vehicle control culture wells received 0.1% DMSO in culture medium. The cell culture supernatants were collected and assessed for secretory pro-inflammatory cytokine, TNFα. The TNFα concentration was quantitatively measured by highly specific and sensitive Enzyme Immuno Assay (EIA) kit supplied by R&D Systems, USA. The enzyme immuno assay was performed based on the protocol provided by the vendor. The inhibitory concentration for 50% inhibition (IC50) of TNFα was determined from a plot drawn for ingredient concentrations against corresponding TNFα levels. […] Table 1 is a summary of 50% inhibitory (IC50) concentrations of various extracts, fractions and compounds derived from Annona squamosa plant parts in cell based in vitro model.

The subject of a further test is IFNγ. Nature of the test: Serum cytokine multiplex assay in FCA induced rats: IFNγ. The class given is in vivo, Sprague Dawley rats. The note with it: 10 mg/kg; vehicle control = 1.000. The text has this:
(§1) Further, the levels of a wide range of cytokine biomarkers were estimated in the serum of the treatment groups supplemented with LI12100 and the control group using multiplex assay (RCYTOMAG 80K) following the instructions provided by the vendor (Millipore Corporation, Billerica, Mass., USA). […] The cytokines modulated by LI12100 include TNFα, IFNγ, IL-1β, IL-2, IL-4, IL-6, IL-13, MCP-1, Rantes and Eotaxin.
(§2) Further, the levels of a wide range of cytokine biomarkers were estimated in the serum of the treatment groups and the control group using multiplex assay (RCYTOMAG 80K) following the instructions provided by the vendor (Millipore Corporation, Billerica, Mass., USA). […] The cytokines ameliorated by LI12100 include TNFα, IFNγ, IL-1β, IL-2, IL-4, IL-6, IL-13, MCP-1, Rantes and Eotaxin as summarized in Table 3.

The subject of another test is IL-4. Nature of the test: Serum cytokine multiplex assay in FCA induced rats: IL-4. The class given is in vivo, Sprague Dawley rats. The note with it: 10 mg/kg; vehicle control = 1.000.
From the text: as §1, §2

For test [2], the system named is Freund's Complete Adjuvant induced paw edema. Nature of the test: Freund's Complete Adjuvant induced arthritis model, paw edema. The class given is in vivo, Sprague Dawley rats. The note with it: 10 mg/kg positive control. On the procedure: The potent in vitro anti-inflammatory efficacy shown by the Annona squamosa leaf ethyl acetate extract (LI12101; standardized to 0.2% squamocin C) was then tested in an in vivo system using Freund's Complete Adjuvant induced arthritis model of Sprague Dawley rats. The anti-inflammatory efficacy of LI12101 (100 mg/kg body weight per day) was evaluated in Freund's Complete Adjuvant induced arthritis model of Sprague Dawley rats and compared its efficacy with that shown by the positive control group supplemented with Prednisolone at 10 mg/kg body weight. The treatment group rats were supplemented daily with LI12101 or prednisolone. […] Blood samples were collected from each animal at regular intervals and paw volumes were measured by Plethysmography equipment on the day of FCA injection and after 13 days of FCA inoculation. […]
To further confirm the in vivo anti-inflammatory activity and study the dose dependent effect, the methanol extract of Annona squamosa leaves (LI12100; standardized to 0.24% squamocin C) was evaluated in Freund's Complete Adjuvant induced arthritis model of Sprague Dawley rats. The anti-inflammatory efficacy of LI12100 (at 50 mg/kg and 100 mg/kg body weight per day) was evaluated in FCA induced arthritis model of Sprague Dawley rats and compared its efficacy with that shown by the positive control group supplemented with Prednisolone at 10 mg/kg body weight. […]

The next test deals with IL-6. Nature of the test: Serum cytokine multiplex assay in FCA induced rats: IL-6. The class given is in vivo, Sprague Dawley rats. The settings on record: 10 mg/kg; vehicle control = 1.000.
From the text: as §1, §2

The next test has as its system IL-2. Nature of the test: Serum cytokine multiplex assay in FCA induced rats: IL-2. The settings on record: 10 mg/kg; vehicle control = 1.000. The class given is in vivo, Sprague Dawley rats.
From the text: as §1, §2

For a further test, the system named is IL-1β. Nature of the test: Serum cytokine multiplex assay in FCA induced rats: IL-1β. The class given is in vivo, Sprague Dawley rats. The note with it: 10 mg/kg; vehicle control = 1.000.
From the text: as §1, §2

The next test has as its system Eotaxin. Nature of the test: Serum cytokine multiplex assay in FCA induced rats: Eotaxin. The class given is in vivo, Sprague Dawley rats. The note with it: 10 mg/kg; vehicle control = 1.000.
From the text: as §1, §2

Test [3] relates to TNFα. Nature of the test: Serum cytokine multiplex assay in FCA induced rats: TNFα. The class given is in vivo, Sprague Dawley rats. The settings on record: 10 mg/kg; vehicle control = 1.000.
From the text: as §1, §2

A further test relates to MCP-1. Nature of the test: Serum cytokine multiplex assay in FCA induced rats: MCP-1. The class given is in vivo, Sprague Dawley rats. The note with it: 10 mg/kg; vehicle control = 1.000.
From the text: as §1, §2

Test [4] has as its system TNFα. Nature of the test: Serum TNFα in FCA challenged rats (enzyme-immuno assay kit). The class given is in vivo, Sprague Dawley rats. The settings on record: 10 mg/kg. On the procedure: After 14 days of FCA challenge, serum TNFα was quantitatively measured by enzyme-immuno assay kit (R&D Systems, USA). The bars a, b and c represent the levels of the cytokines in groups supplemented with control, LI12101 (100 mg/kg) and prednisolone (10 mg/kg) respectively. Each bar represents mean±SD, N=6. * p<0.05 and ** p<0.005 (vs. control).
After 14 days of FCA challenge, serum TNFα[…] was quantitatively measured by enzyme-immuno assay kit (R&D Systems, USA). The bars represent the levels of the cytokines in groups supplemented with control, LI12100 at 50 mg/kg body weight, LI12100 at 100 mg/kg body weight and prednisolone (10 mg/kg) respectively. Each bar represents mean±SD, N=6.
The levels of cytokine tumor necrosis factor alpha (TNFα) were evaluated in blood serum collected 13 days after FCA challenge. The serum cytokine levels were measured using enzyme-immune assay kit supplied by R & D systems, USA.
The levels of cytokine tumor necrosis factor-alpha (TNFα) were evaluated in blood serum collected 14 days after FCA challenge. The serum cytokine levels were measured using enzyme-immune assay kit supplied by R & D systems, USA.

The subject of a further test is Rantes. Nature of the test: Serum cytokine multiplex assay in FCA induced rats: Rantes. The class given is in vivo, Sprague Dawley rats. The settings on record: 10 mg/kg; vehicle control = 1.000.
From the text: as §1, §2

In another test the test system is IL-13. Nature of the test: Serum cytokine multiplex assay in FCA induced rats: IL-13. The class given is in vivo, Sprague Dawley rats. The note with it: 10 mg/kg; vehicle control = 1.000.
From the text: as §1, §2

[5] abbreviates: LPS induced THP-1 human monocytes.

Turning to `CCCCCCCCCC[C@@H](O)[C@H]1CC[C@H]([C@H]2CC[C@H]([C@H](O)CCCC[C@H](O)CCCCC[C@@H](O)CC3=C[C@H](C)OC3=O)O2)O1` [10-Hydroxyasimicin, 10-hydroxyasimicin], the “TNFα inhibition IC50” value in the test with TNFα [1] (setting [5]) amounted to 3.21 ng/mL.

Turning to `CCCCCCCCCCCCCC[C@H]1O[C@H]1CC[C@@H]1O[C@@H]1CCCCCCCCCCC1=C[C@H](C)OC1=O` [Dieposabadelin, dieposabadelin], the “TNFα inhibition IC50” value in the test on TNFα [1] (setting [5]) was over 5 ng/mL.

In the case of `C[C@]12C=CC(=O)C=C1CC[C@@H]1[C@@H]2[C@@H](O)C[C@@]2(C)[C@H]1CC[C@]2(O)C(=O)CO` [Prednisolone], the “Relative expression of IFNγ in serum” value in the test on IFNγ was determined as 1.496. Further, in the test with IL-4, the “Relative expression of IL-4 in serum” value is given as 0.831. For the same molecule, the “reduction in paw volume vs control” value in test [2] (Example 16 study) turned out to be 71%; in test [2] (Example 17 study) it was 69.2%. The “Relative expression of IL-6 in serum” value in the test with IL-6 is 1.377. Besides, the “Relative expression of IL-2 in serum” value with IL-2 was 0.515. Further, the “Relative expression of IL-1β in serum” value in the test on IL-1β is on record as 0.848. Besides, the “Relative expression of Eotaxin in serum” value in the test on Eotaxin is reported as 0.992. In addition, the “Relative expression of TNFα in serum” value in the test on TNFα [3] came to 0.754. For the same molecule, in the test with MCP-1, the “Relative expression of MCP-1 in serum” value was 0.802. For the same molecule, the “serum TNFα level vs control” value with TNFα [4] (Example 16 study) and with TNFα [4] (Example 17 study) was “significant reduction” throughout. Further, in the test with Rantes, the “Relative expression of Rantes in serum” value is on record as 0.874. The “Relative expression of IL-13 in serum” value in the test with IL-13 stood at 3.120.

For the molecule `CCCCCC(O)CCCCC(O)C1CCC(C2CCC(C(O)CCCCCCCCCCCCC3=CC(C)OC3=O)O2)O1` (centres unmarked) [Squamocin C, squamocin C], the “TNFα inhibition IC50” value in the test on TNFα [1] (setting [5]) and in the test on TNFα [1] (THP-1 human monocytes) was 0.0249 ng/mL in each case.

As to `CCCCCCCCCC[C@H](O)[C@H]1CC[C@H]([C@H]2CC[C@H]([C@H](O)CCCCCCCCCC[C@@H](O)CC3=C[C@H](C)OC3=O)O2)O1` [Squamocin G, squamocin G], the “TNFα inhibition IC50” value in the test with TNFα [1] (setting [5]) came out at 0.124 ng/mL.

Turning to `CCCCCCCCCCC(O)C1CCC(C2CCC(C(O)CCCCCCCCCCCCC3=CC(C)OC3=O)O2)O1` (centres unmarked) [Squamocin L, squamocin L], the “TNFα inhibition IC50” value in the test on TNFα [1] (setting [5]) stood at 0.116 ng/mL.

`CCCCCCCCCC[C@H](O)[C@@H]1CC[C@@H]([C@H](O)CC[C@@H](O)[C@@H]2CC[C@@H](CCCCCCCCCC3=C[C@@H](C)OC3=O)O2)O1` [Squamostatin D, squamostatin D]: the “TNFα inhibition IC50” value with TNFα [1] (setting [5]) was determined as 4.08 ng/mL.

isosquamocin: the “TNFα inhibition IC50” value in the test on TNFα [1] (setting [5]) is 0.080 ng/mL. The molecule also showed a TNFα inhibition in the test with TNFα [1] (at 100 pg/mL) of 63%.
